Patent publication US20240279227A1, “FUSED HETEROCYCLIC DERIVATIVES” (Janssen Sciences Ireland Unlimited Company, priority 2021, published 2024)

Assays:
HBV = assay: Anti-HBV activity in HepG2.117 cell line (intracellular HBV DNA, real-time PCR); assay type: cell-based, hepatitis B virus; conditions: HepG2.117 cells, HBV replication induced, 3 days of treatment, intracellular HBV DNA by real-time PCR
Outline: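 HepG2.117 cells (Tet-off, doxycycline-free HBV replication) induced for HBV replication, then exposed to serially diluted compound for 3 days. Intracellular HBV DNA quantified by real-time PCR with HBV-specific primers and probe.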

HepG2 or HepG2.117 cells = assay: Cytotoxicity, ATPlite Luminescence Assay; assay type: cell-based, human; conditions: 3-days incubation unless marked with *, ATPlite viability
Outline: (§1)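 Incubate with compound for 3 or 4 days, then assess cell viability via ATPlite luminescence.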

[1] = Human liver microsome stability; assay type: in vitro ADME; conditions: 1 μM compound, NADPH 1 mM, pH 7.4, 37° C., 0-60 min; for HLM Metabolism t1/2: pooled human liver microsomes 0.5 mg/mL; for half-life at 1 μM: human, pooled human liver microsomes, pH 7.4, pooled human liver microsomes 0.5 mg/mL, read-out: HLM Metabolism t1/2
Outline: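 Pooled human liver microsomes (0.5 mg/mL) incubated at 37 °C with 1 μM compound in 0.1 M phosphate pH 7.4, 1 mM MgCl2; 1 mM NADPH starts reaction. Samples quenched in acetonitrile at 0–60 min, analysed by LC-MS against internal standard; half-life from slope of ln peak-area ratio versus time.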

[2] = Cytotoxicity, ATPlite Luminescence Assay; assay type: cell-based, human; conditions: human, HepG2 or HepG2.117 cells, 3-days incubation unless marked with *, ATPlite viability
Outline: as §1

[3] = Hepatitis B virus, HepG2.117, 72 h

Structure (SMILES) | EC50 (HBV) [µM] | CC50 (HepG2 or HepG2.117 cells) [µM] | HLM Metabolism t1/2 [1] [h] | EC50 (HBV; [3]) [µM] | CC50 [2] [µM] | half-life at 1 μM [1] [h]
CNC(=O)[C@@H]1CN(C(C)c2ccc(C#N)cc2)C(=O)c2c3c(nn21)C[C@@H](C)N(C(=O)c1ccc(Cl)c(Cl)c1)C3 (single isomer, unassigned) [Compound 23B, (3R,7S)-9-((S*)-1-(4-cyanophenyl)ethyl)-2-(3,4-dichlorobenzoyl)-N,3-dimethyl-10-oxo-1,2,3,4,7,8,9,10-octahydropyrido[4′,3′:3,4]pyrazolo[1,5-a]pyrazine-7-carboxamide] | 0.023 | > 50 | >3 |  |  | 
CNC(=O)[C@@H]1CN(C(C)c2ccc(OC(F)F)c(F)c2)C(=O)c2c3c(nn21)C[C@@H](C)N(C(=O)c1ccc(Cl)c(Cl)c1)C3 (single isomer, unassigned) [Compound 24B, (3R,7S)-2-(3,4-dichlorobenzoyl)-9-((S*)-1-(4-(difluoromethoxy)-3-fluorophenyl)ethyl)-N,3-dimethyl-10-oxo-1,2,3,4,7,8,9,10-octahydropyrido[4′,3′:3,4]pyrazolo[1,5-a]pyrazine-7-carboxamide] | 0.013 | 25.5 | >3 |  |  | 
CNC(=O)[C@@H]1CN(C(C)c2ccc(OC)nc2)C(=O)c2c3c(nn21)C[C@@H](C)N(C(=O)c1ccc(Cl)c(Cl)c1)C3 (single isomer, unassigned) [Compound 31B, (3R,7S)-2-(3,4-dichlorobenzoyl)-9-((S*)-1-(6-methoxypyridin-3-yl)ethyl)-N,3-dimethyl-10-oxo-1,2,3,4,7,8,9,10-octahydropyrido[4′,3′:3,4]pyrazolo[1,5-a]pyrazine-7-carboxamide] | 0.018 | > 50 | >3 |  |  | 
CNC(=O)[C@@H]1CN(C(C)c2ccc(-n3nnc(C)n3)cc2)C(=O)c2c3c(nn21)C[C@@H](C)N(C(=O)c1ccc(Cl)c(Cl)c1)C3 (single isomer, unassigned) [Compound 30B, (3R,7S)-2-(3,4-dichlorobenzoyl)-N,3-dimethyl-9-((S*)-1-(4-(5-methyl-2H-tetrazol-2-yl)phenyl)ethyl)-10-oxo-1,2,3,4,7,8,9,10-octahydropyrido[4′,3′:3,4]pyrazolo[1,5-a]pyrazine-7-carboxamide] | 0.017 | 17.2 | 1.52 |  |  | 
CCC(c1ccc(S(C)(=O)=O)cc1)N1C[C@@H](C(=O)NC)n2nc3c(c2C1=O)CN(C(=O)c1ccc(Cl)c(Cl)c1)[C@H](C)C3 (single isomer, unassigned) [Compound 22B, (3R,7S)-2-(3,4-dichlorobenzoyl)-N,3-dimethyl-9-((S*)-1-(4-(methylsulfonyl)phenyl)propyl)-10-oxo-1,2,3,4,7,8,9,10-octahydropyrido[4′,3′:3,4]pyrazolo[1,5-a]pyrazine-7-carboxamide] | 0.05 | > 50 | >3 |  |  | 
CNC(=O)[C@@H]1CN(C(C)c2ccc(NCC(F)(F)F)nc2)C(=O)c2c3c(nn21)C[C@@H](C)N(C(=O)c1ccc(Cl)c(Cl)c1)C3 (single isomer, unassigned) [Compound 33A, (3R,7S)-2-(3,4-Dichlorobenzoyl)-N,3-dimethyl-10-oxo-9-((R*)-1-(6-((2,2,2-trifluoroethyl)amino)pyridin-3-yl)ethyl)-1,2,3,4,7,8,9,10-octahydropyrido[4′,3′:3,4]pyrazolo[1,5-a]pyrazine-7-carboxamide] |  |  | 0.798 | 0.062 | > 50 | 
CNC(=O)[C@@H]1CN([C@H](C)c2ccc(C(F)(F)F)nc2)C(=O)c2c3c(nn21)C[C@@H](C)N(C(=O)c1ccc(Cl)c(Cl)c1)C3 [Compound 13A, (3R,7S)-2-(3,4-Dichlorobenzoyl)-N,3-dimethyl-10-oxo-9-((R)-1-(6-(trifluoromethyl)pyridin-3-yl)ethyl)-1,2,3,4,7,8,9,10-octahydropyrido[4′,3′:3,4]pyrazolo[1,5-a]pyrazine-7-carboxamide] |  |  |  | 0.34 | > 50 | > 3
CNC(=O)[C@@H]1CN(C(C)c2ccc(C(C)(C)O)cc2)C(=O)c2c3c(nn21)C[C@@H](C)N(C(=O)c1ccc(Cl)c(Cl)c1)C3 (single isomer, unassigned) [Compound 5B, (3R,7S)-2-(3,4-Dichlorobenzoyl)-9-((S*)-1-(4-(2-hydroxypropan-2-yl)phenyl)ethyl)-N,3-dimethyl-10-oxo-1,2,3,4,7,8,9,10-octahydropyrido[4′,3′:3,4]pyrazolo[1,5-a]pyrazine-7-carboxamide] |  |  |  | 0.019 | > 50 | 1.44
CNC(=O)[C@@H]1CN(C(C)c2ccc(C(C)(C)O)nc2)C(=O)c2c3c(nn21)C[C@@H](C)N(C(=O)c1ccc(Cl)c(Cl)c1)C3 (single isomer, unassigned) [Compound 3B, (3R,7S)-2-(3,4-Dichlorobenzoyl)-9-((S*)-1-(6-(2-hydroxypropan-2-yl)pyridin-3-yl)ethyl)-N,3-dimethyl-10-oxo-1,2,3,4,7,8,9,10-octahydropyrido[4′,3′:3,4]pyrazolo[1,5-a]pyrazine-7-carboxamide] |  |  |  | 0.051 | > 50 | > 3
CNC(=O)[C@@H]1CN(C(C)c2ccc(-n3cncn3)cn2)C(=O)c2c3c(nn21)C[C@@H](C)N(C(=O)c1ccc(Cl)c(Cl)c1)C3 (single isomer, unassigned) [Compound 40A, (3R,7S)-9-((R*)-1-(5-(1H-1,2,4-Triazol-1-yl)pyridin-2-yl)ethyl)-2-(3,4-dichlorobenzoyl)-N,3-dimethyl-10-oxo-1,2,3,4,7,8,9,10-octahydropyrido[4′,3′:3,4]pyrazolo [1,5-a]pyrazine-7-carboxamide] | 0.28 |  |  |  | > 50 | > 3
C[C@@H]1Cc2nn3c(c2CN1C(=O)c1ccc(Cl)c(C#N)c1)C(=O)N([C@@H](C)c1ccc(OC(F)F)cc1)C[C@H]3C(=O)N(C)C [Compound 27B, (3R,7S)-2-(4-chloro-3-cyanobenzoyl)-9-((S)-1-(4-(difluoromethoxy)phenyl)ethyl)-N,N,3-trimethyl-10-oxo-1,2,3,4,7,8,9,10-octahydropyrido[4′,3′:3,4]pyrazolo[1,5-a]pyrazine-7-carboxamide] |  |  |  | 0.046 | > 50 | > 3
CNC(=O)[C@@H]1CN(C(C)c2ccc(S(=O)(=O)C3CC3)cc2)C(=O)c2c3c(nn21)C[C@@H](C)N(C(=O)c1ccc(Cl)c(C(F)(F)F)c1)C3 (single isomer, unassigned) [Compound 20A, (3R,7S)-2-(4-Chloro-3-(trifluoromethyl)benzoyl)-9-((R*)-1-(4-(cyclopropylsulfonyl)phenyl)ethyl)-N,3-dimethyl-10-oxo-1,2,3,4,7,8,9,10-octahydropyrido[4′,3′:3,4]pyrazolo[1,5-a]pyrazine-7-carboxamide] | 0.089 |  |  |  | > 50 | > 3
CNC(=O)[C@@H]1CN(C(C)c2ccc(C)nn2)C(=O)c2c3c(nn21)C[C@@H](C)N(C(=O)c1ccc(Cl)c(Cl)c1)C3 (single isomer, unassigned) [Compound 1B, (3R,7S)-2-(3,4-Dichlorobenzoyl)-N,3-dimethyl-9-((S*)-1-(6-methylpyridazin-3-yl)ethyl)-10-oxo-1,2,3,4,7,8,9,10-octahydropyrido[4′,3′:3,4]pyrazolo[1,5-a]pyrazine-7-carboxamide] |  |  |  | 0.38 | > 50 | > 3
